Laboratory results as given in US4973593A, “Novel compounds for the treatment of hypertension” (Research Corporation Technologies, Inc., priority 1987, dated 1990).

Key:
nigrostriatal projection = assay: Rotation Assay (circling behavior, 6-hydroxydopamine unilateral denervation of the nigrostriatal projection); type: in vivo, Male Sprague-Dawley rats; conditions: for antagonism of apomorphine-induced rotations in rats: apomorphine 0.25 mg/kg, compound 4.0 mg/kg; for rotational behavior in rats with unilateral lesions of the nigrostriatal projection: dose 4.0 mg/kg
Method: Male Sprague-Dawley rats with 6-hydroxydopamine unilateral denervation of the nigrostriatal projection were used to test compounds for circling behavior according to the procedure of Cannon, et al. in J. Med. Chem 1984, 27, 186. Compounds were administered at a dose of 4.0 mg/kg and were also evaluated for their ability to antagonize apomorphine (0.25 mg/kg) induced rotations.
Finally, the compounds 11, 15, and 18 were evaluated for in vivo rat rotation assay.

[1] = tested on: cat cardioaccelerator nerve; assay: Cat Cardioaccelerator Nerve Assay (in vivo peripheral dopamine agonist activity); conditions: for % inhibn of nerve stimulation: N=3; for peripheral dopamine agonist activity: in vivo, summary of Table I
Method: Cats were anesthetized by injection of pentobarbital sodium (30 mg/kg) into the thoracic cavity, and the surgical and experimental procedure was according to the procedure described in Cannon, J. G., et al. in J. Med. Chem. 1984, 27, 186. Experimental compounds were administered intravenously in doses of 0.33 log intervals.
The compounds 11, 15, and 18 were evaluated for in vivo dopamine agonist activity in the cat cardioaccelerator nerve assay.

dopamine receptor = assay: Dopamine Receptor Binding Studies ([^3 H]spiroperidol displacement, rat striatal tissue); conditions: [^3 H]spiroperidol 2 nM
Method: A method of Seeman, et al., Proc. Natl. Acad. Sci. U.S.A., 1975, 72, 4376, was employed using [^3 H]spiroperidol (2 nM) and rat striatal tissue.
Compound 11 was also evaluated for its ability to displace [^3 H] spiroperidol (2nm) from rat striatal tissue.

| Structure (SMILES) | antagonism of apomorphine-induced rotations in rats (nigrostriatal projection) | rotational behavior in rats with unilateral lesions of the nigrostriatal projection (nigrostriatal projection) | % inhibn of nerve stimulation ([1]; dose 0.46, iv) | heart rate ([1]; dose 1.38, iv) | % inhibn of nerve stimulation ([1]; dose 1.38, iv) | arterial pressure ([1]; dose 4.60, iv) | % inhibn of nerve stimulation ([1]; dose 4.60, iv) | peripheral dopamine agonist activity [1] | ability to displace [^3 H]spiroperidol from rat striatal tissue (dopamine receptor) | % inhibn of nerve stimulation ([1]; dose 0.035, iv) | % inhibn of nerve stimulation ([1]; dose 0.105, iv) | % inhibn of nerve stimulation ([1]; dose 0.315, iv) | arterial pressure ([1]; dose 3.5, iv) | heart rate ([1]; dose 3.5, iv) | % inhibn of nerve stimulation ([1]; dose 3.5, iv) |
| --- | --- | --- | --- | --- | --- | --- | --- | --- | --- | --- | --- | --- | --- | --- | --- |
| CN1CCCC2(OCCO2)C1Cc1ccccc1 (stereo not drawn) [Compound 18, 6-Benzyl-7-methyl-1,4-dioxa-7-azaspiro[4.5]decane] | nor did they antagonize apomorphine-induced rotations | None of the compounds screened produced rotational behavior | 22 ± 11.7% | Increased heart rate slightly at this dose | 18 ± 2.0% | Increased arterial pressure at this dose | 36 ± 12.3% | effective agonist activity |  |  |  |  |  |  |  |
| CN1CCCC2(OCCO2)C1Cc1cccc2[nH]ccc12 (stereo not drawn) [Compound 11, 6-(4-Indolylmethyl)-7-methyl-1,4-dioxa-7-azaspiro[4.5]decane] | nor did they antagonize apomorphine-induced rotations | None of the compounds screened produced rotational behavior |  |  |  |  |  | effective agonist activity | inactive | 26 ± 19% | 48 ± 21% | 79 ± 11% |  |  |  |
| CN1CCCC2(OCCO2)C1Cc1c[nH]c2ccccc12 (stereo not drawn) [Compound 15, 6-(3-Indolylmethyl)-7-methyl-1,4-dioxa-7-azaspiro[4.5]decane] | nor did they antagonize apomorphine-induced rotations | None of the compounds screened produced rotational behavior |  |  |  |  |  | effective agonist activity |  |  |  |  | Increased arterial pressure at this dose | Increased heart rate slightly at this dose | 32 ± 17.4% |
